Experimental data: patent publication US6518412B1, “Gene therapy approaches to supply apolipoprotein A-I agonists and their use to treat dyslipidemic disorders” (priority 1997, dated 2003)
Blank lines part the entries; values can stand above or below the molecule they belong to. Where a SMILES comes first, the peptide text is derived from it. Where no end group is shown, it is not given here.

Tests used:
[1] = target: T1, LCAT (purified from human plasma) (Homo sapiens, UniProt P04180); experiment: LCAT activation assay; format: biochemical; details: for LCAT activation as compared with native ApoA-I: native ApoA-I = 100% activation
T1 construct: from tissue; host or cells: human plasma
T1 sequence (P04180 25-440): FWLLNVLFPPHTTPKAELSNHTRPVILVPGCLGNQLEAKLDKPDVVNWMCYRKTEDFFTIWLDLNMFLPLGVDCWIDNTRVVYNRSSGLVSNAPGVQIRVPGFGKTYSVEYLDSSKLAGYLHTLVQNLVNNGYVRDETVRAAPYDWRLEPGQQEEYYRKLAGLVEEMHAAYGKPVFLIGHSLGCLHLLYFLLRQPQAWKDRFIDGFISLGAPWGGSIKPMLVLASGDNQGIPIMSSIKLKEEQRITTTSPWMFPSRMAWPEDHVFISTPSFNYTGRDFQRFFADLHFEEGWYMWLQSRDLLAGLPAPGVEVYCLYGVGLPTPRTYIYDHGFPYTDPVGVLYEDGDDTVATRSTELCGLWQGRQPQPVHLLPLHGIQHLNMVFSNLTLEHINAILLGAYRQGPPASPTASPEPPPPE
Method: Examples of peptides which may be encoded by the nucleotides of the present invention are listed in Table VIII which also includes peptides which are chemically synthesized. […] All of the peptides listed were analyzed in vitro for their ability to activate LCAT. In the LCAT assay, substrate vesicles (small unilamellar vesicles or “SUVs”) composed of egg phophatidylcholine or 1-Palmitoyl-2-oleyl-phosphatidylcholine (POPC) and radiolabelled cholesterol are preincubated with equivalent masses either of peptide or ApoA-I (isolated from human plasma). The reaction is initiated by addition of LCAT (purified from human plasma). Native ApoA-I, which was used as positive control, represents 100% activation activity. “Specific activity” (i.e., units of activity (LCAT activation)/unit of mass) of the peptides can be calculated as the concentration of peptide that achieves maximum LCAT activation. For example, a series of concentrations of the peptide (e.g., a limiting dilution) can be assayed to determine the “specific activity” for the peptide—the concentration which achieves maximal LCAT activation (i.e., percentage conversion of cholesterol to cholesterol ester) at a specific timepoint in the assay (e.g., 1 hr.). When plotting percentage conversion of cholesterol at, e.g., 1 hr., against the concentration of peptide used, the “specific activity” can be identified as the concentration of peptide that achieves a plateau on the plottal curve.
The vesicles used in the LCAT assay are SUVs composed of egg phosphatidylcholine (EPC) or 1-palmitoyl-2-oleyl-phosphatidylcholine (POPC) and cholesterol with a molar ratio of 20:1. To prepare a vesicle stock solution sufficient for 40 assays, 7.7 mg EPC (or 7.6 mg POPC; 10 μmol), 78 μg (0.2 μmol) 4-^14C-cholesterol, 116 μg cholesterol (0.3 μmol) are dissolved in 5 ml xylene and lyophilized. Thereafter 4 ml of assay buffer is added to the dry powder and sonicated under nitrogen atmosphere at 4° C. Sonication conditions: Branson 250 sonicator, 10 mm tip, 6.5 minutes; Assay buffer: 10 mM Tris, 0.14M NaCl, 1 mM EDTA, pH 7.4). […]

[2] = test system: EPC/Chol (20:1) small unilamellar vesicles; experiment: Lipid binding by fluorescence spectroscopy
Method: The lipid binding properties of the peptides described in Section 6, supra, were tested by fluorescence measurements with labeled peptides, in the present case Tryptophane (Trp or W) or Naphtylalanine (Nal). The fluorescence spectra were recorded on a Fluoromax from Spex (Jobin-Yvon) equipped with a Xenon lamp of 150W, two monochromators (excitation and emission), a photomultiplier R-928 for detection sensitive in the red up to 850 nm and a thermoelectric magnetic stirred cell holder. Quartz Suprasil cuvettes were used for measurements in the micromolar concentration range. A device of variable slits (from 0.4 to 5 nm) allows modulation of the incident and emitted intensities according to the concentration of peptide used. The reported values are in general the average of between 2 to 4 spectra. The peptide concentration is determined by absorption spectrometry on a Philips PU 8800 using the absorption band of the Trp (∈280 nm=5,550 M^−1 cm^−1 in Tris buffer) or the Nal (∈224 nm=92,770 M^−1 cm^−1 in methanol).
Fluorescence spectra of the peptides were recorded between 290 nm and 450 nm in Tris-HCl buffer (20 mM, pH=7.5), in the presence and absence of lipidic vesicles. The small unilamellar vesicles were formed after rehydration in buffer of the lyophilized phospholipids, dispersion and tip sonification under a N2 stream. The lipids used were either Egg PC/Chol. (20:1) or POPC/Chol. (20:1). The spectra were recorded at a peptide concentration of 2 μM and at a temperature of 37° C. The fluorescence reference standard in the case of Trp was N-acetyltryptophanylamide (NATA).
Lipid binding studies were done through progressive lipidic vesicle addition to the peptide in solution at 2 μM (slits:5 nm in excitation and 1.5 nm in emission). Dilution effects were taken into account for the fluorescence intensity determination. The lipid concentrations were varied from 10 to 600 μM and the molar ratio of lipid to peptide (Ri) was varied from 5 to 300. The wavelength of excitation was set at 280 nm for both Trp and Nal.
The data were directly recorded and treated by an IBM-PC linked to the spectrofluorimeter through the DM3000F software from Spex. The spectra were corrected by substraction of the solvent contribution and by application of a coefficient given by the constructor taking into account the variation of the photomultiplier response versus the wavelength.
The fluorescence spectra of the peptides were characterized by the wavelength at their maximum of fluorescence emission and by their quantum yield compared to NATA in the case of peptides labeled with a tryptophane. The process of binding to lipids was analyzed by calculating the shift of the wavelength at the maximum of fluorescence emission, (λmax), and the variation of the relative fluorescence intensity of emission versus the lipid concentration. The relative fluorescence intensity is defined as the following ratio: (I-I0)λmax/I0λmax. I and I0 are both measured at the (λmax) corresponding to the initial free state of the peptide, i.e., without lipids. I is the intensity at a defined lipid to peptide ratio and I0 is the same parameter measured in absence of lipids. The absence of these variations is relevant of the absence of interactions of the peptides with the lipids.

[3] = HDL cholesterol in rabbits after injection of phospholipid/peptide complex; format: in vivo, Male New Zealand White rabbits; details: for Increase in HDL Cholesterol (%): 8 mg/kg i.v. as peptide/DPPC complexes
Method: Small discoidal particles consisting of phospholipid (DPPC) and peptide 146 (SEQ ID NO:146) were prepared following the cholate dialysis method. The phospholipid was dissolved in chloroform and dried under a stream of nitrogen. The peptide was dissolved in buffer (saline) at a concentration of 1-2 mg/ml. The lipid film was redissolved in buffer containing cholate (43° C.) and the peptide solution was added at a 3-1 phospholipid/peptide ratio. The mixture was incubated overnight at 43° C. and then dialyzed at 43° C. (24 hr.), room temperature (24 hr.) and 4° C. (24 hr.), with three changes of buffer (large volumes) at temperature point. The complexes were filter sterilized (0.22μ) for injection and storage at 4° C. The particles were separated on a gel filtration column (Superose 6 HR). The position of the peak containing the particles was identified by measuring the phospholipid concentration in each fraction. From the elution volume, the Stokes radius can was determined. The concentration of peptide in the complex was determined by determining the phenylalanine content (by HPLC) following a 16 hr. acid hydrolysis. Male New Zealand White rabbits (2.5-3 kg) were injected intravenously with a dose of phospholipid/peptide complex (8 mg/kg bodyweight peptide 146 (SEQ ID NO:146) or 10 mg/kg bodyweight ApoA-I, expressed as peptide or protein content) in a single bolus injection not exceeding 10-15 ml. The animals were slightly sedated before the manipulations. Blood samples (collected on EDTA) were taken before and 5, 15, 30, 60, 240 and 1440 minutes after injection. The hematocrit (Hct) was determined for each sample. Samples were aliquoted and stored at −20° C. before analysis. Plasma Lipids. The total plasma cholesterol, plasma triglycerides and plasma phospholipids were determined enzymatically using commercially available assays according to the manufacturer's protocols (Boehringer Mannheim, Mannheim, Germany and Biomérieux, 69280, Marcy-l'étoile, France). Lipoprotein Profiles. The plasma lipoprotein profiles of the fractions obtained after the separation of the plasma into its lipoprotein fractions were determined by spinning in a sucrose density gradient. The fractions were collected and in each individual fraction the phospholipid and cholesterol content was measured enzymatically.

Molecule: CC(=O)N1CCC[C@H]1C(=O)N[C@H](C(=O)N[C@@H](CC(C)C)C(=O)N[C@@H](CC(=O)O)C(=O)N[C@@H](CCC(=O)O)C(=O)N[C@@H](Cc1ccccc1)C(=O)N[C@@H](CCCN=C(N)N)C(=O)N[C@@H](CCC(=O)O)C(=O)N[C@@H](CCCCN)C(=O)N[C@@H](CC(C)C)C(=O)N[C@@H](CC(N)=O)C(=O)N[C@@H](CCC(=O)O)C(=O)N[C@@H](CCC(=O)O)C(=O)N[C@@H](CC(C)C)C(=O)N[C@@H](CCC(=O)O)C(=O)N[C@@H](C)C(=O)N[C@@H](CC(C)C)C(=O)N[C@@H](CCCCN)C(=O)N[C@@H](CCC(N)=O)C(=O)N[C@@H](CCCCN)C(=O)N[C@@H](CC(C)C)C(=O)N[C@@H](CCCCN)C(N)=O)C(C)C [consensus 22-mer] (Ac-PVLDEFREKLNEELEALKQKLK-NH2)
- LCAT activation as compared with native ApoA-I [1]: 10%

Molecule: CC(=O)N[C@@H](Cc1c[nH]c2ccccc12)C(N)=O [NATA, N-acetyltryptophanylamide, reference compound]
- λmax ([2]; Ri 0, in buffer, 2 μM): 350 nm

Molecule: PVLELFENLLERLLDALQKKLK [peptide 146]
- Increase in HDL Cholesterol (%) ([3]; 5 min): 31.3%
- Increase in HDL Cholesterol (%) ([3]; 15 min): 60.4%
- Increase in HDL Cholesterol (%) ([3]; 60 min): 42.9%
- Increase in HDL Cholesterol (%) ([3]; 240 min, 8 mg/kg): 90%
- Increase in HDL Cholesterol (%) ([3]; 240 min, listed as Peptide 146, 8 mg/kg): 90.2%
- Increase in HDL Cholesterol (%) ([3]; 1440 min): 71.2%
- duration of the increase in cholesterol of the HDL cholesterol fractions ([3]; 8 mg/kg, apparent at 5 min following injection): approximately 24 hr

Other lines, results leading:

- LCAT activation as compared with native ApoA-I [1]: less than 4%
Molecule: peptide 18AM4: peptide ApoA-I mimic described in the literature (Corinjn et al., 1993) (EWLEAFYKKVLEKLKELF)

- ACTIVITY (%) LCAT ([1]; LCAT activation as compared with native human ApoA-I): 0%
Molecule: PVLELFERLLEDLQKKLK [peptide 229]

- lipid to peptide molar ratio at which burying of the tryptophane residue is maximal ([2]; EPC/Chol (20:1) SUVs): about 100
- λmax ([2]; Ri 0, in buffer, 2 μM): 348 nm
- λmax ([2]; Ri 5): 344 nm
- λmax ([2]; Ri 10): 339 nm
- λmax ([2]; Ri 30): 328 nm
- λmax ([2]; Ri 100): 326 nm
- λmax ([2]; Ri 200): 325 nm
- lipid binding ([2]; small unilamellar vesicles): binds very effectively
Molecule: PVLDLFRELWEELKQKLK* (not fully specified (N-terminus, C-terminus); printed as PVLDLFRELWEELKQKLK*; also: terminal modification marked *, not defined here) [peptide 199]
